pIC50: −log10 of the molar value.
Assays:
[1] = target: PDE (type III) enzyme (obtained from cat heart homogenate); test: Inhibition of phosphodiesterase (PDE) (type III); assay type: biochemical; conditions: 1 µM cAMP, read-out: IC₅₀
Procedure: Inhibition of Phosphodiesterase (PDE) (Type III)
Following the procedure described in EPA-247,724, IC₅₀ values (the concentration of inhibitor required for 50% inhibition of enzyme activity) were obtained by incubation of a PDE (type III) enzyme (obtained from cat heart homogenate) at 1 µM cAMP and a range of inhibitor concentrations from 0.1 x IC₅₀ to 100 x IC₅₀.

[2] = system: Anaesthetised Cats; test: Cardiac stimulant activity in vivo (anaesthetised cats); conditions: anaesthetised cats pretreated with pempidine and propranolol, administered intravenously; for ED50: Felis catus, iv, read-out: ED₅₀ (dose to increase left ventricular dp/dt max by 50%)
Excerpt: Cardiac Stimulant Activity - In vivo (Anaesthetised Cats)
In anaesthetised cats pretreated with a ganglion blocker (pempidine) and propranolol, the compounds of the Examples cause sustained increases in left ventricular dp/dt max (this is an index of left ventricular contractility) when administered intravenously. The dose to increase left ventricular dp/dt max by 50% is given as the ED₅₀.

Compound	pIC50 [1]	ED50 [2] [µmol/kg]	ED₅₀ (dose to increase left ventricular dp/dt max by 50%) [2] [µmol/kg]
Cc1nccn1-c1ccc2c(c1)CC1SC(=O)NN=C21 (centres unmarked) [Example 1, 7-(2-Methyl-1H-imidazol-1-yl)-9,9a-dihydroindeno[1,2-e][1,3,4]thiadiazine-2-(3H)-one]	6.18	0.72	
Amirone [reference compound]			5.6
Cc1cn(-c2ccc3c(c2)CC2SC(=O)NN=C32)cn1 (centres unmarked) [Example 2, 7-(4-Methyl-1H-imidazol-1-yl)-9,9a-dihydroindeno[1,2-e][1,3,4] thiadiazine-2-(3H)-one]	6.39	0.46	

From patent EP0314400A1, “Therapeutically active condensed thiadiazinones” (SMITH KLINE & FRENCH LABORATORIES LIMITED, priority 1987, dated 1989)
